Reference: US9894902B2, “Herbicidal compositions comprising 4-amino-3-chloro-6-(4-chloro-2-fluoro-3-methoxyphenyl)pyridine-2-carboxylic acid or a derivative thereof and picloram or a derivative thereof” (Dow AgroSciences LLC, priority 2013, dated 2018)

Tests used:
Assay in all cases: Postemergent herbicidal activity, greenhouse, foliar-applied
Assay type in all cases: in vivo
Details in all cases: foliar postemergence
[1] = tested on: AMARE Amaranthus retroflexus L. (redroot pigweed)
Method: (§1) Evaluation of Postemergent Herbicidal Activity. Seeds or nutlets of the desired test plant species were planted in Sun Gro Metro-Mix® 360 planting mixture, which typically has a pH of 6.0 to 6.8 and an organic matter content of about 30 percent, in plastic pots with a surface area of 64 square centimeters (cm^2). […] The plants were grown for 7-21 days (d) in a greenhouse with an approximate 15 hour (h) photoperiod which was maintained at about 23-29° C. during the day and 22-28° C. during the night. Nutrients and water were added on a regular basis and supplemental lighting was provided with overhead metal halide 1000-Watt lamps as necessary. The plants were employed for testing when they reached the first or second true leaf stage.
(§2) A weighed amount, determined by the highest rate to be tested, of each test compound was placed in a 25 milliliter (mL) glass vial and was dissolved in 4 mL of a 97:3 volume per volume (v/v) mixture of acetone and dimethyl sulfoxide (DMSO) to obtain concentrated stock solutions. […] The concentrated stock solutions obtained were diluted with 20 mL of an aqueous mixture containing acetone, water, isopropyl alcohol, DMSO, Atplus 411F crop oil concentrate, and Triton® X-155 surfactant in a 48.5:39:10:1.5:1.0:0.02 v/v ratio to obtain spray solutions containing the highest application rates. Additional application rates were obtained by serial dilution of 12 mL of the high rate solution into a solution containing 2 mL of a 97:3 v/v mixture of acetone and DMSO and 10 mL of an aqueous mixture containing acetone, water, isopropyl alcohol, DMSO, Atplus 411F crop oil concentrate, and Triton X-155 surfactant in a 48.5:39:10:1.5:1.0:0.02 v/v ratio to obtain 1/2×, 1/4×, 1/8×and 1/16× rates of the high rate. Compound requirements are based upon a 12 mL application volume at a rate of 187 liters per hectare (L/ha). Formulated compounds were applied to the plant material with an overhead Mandel track sprayer equipped with 8002E nozzles calibrated to deliver 187 L/ha over an application area of 0.503 square meters (m^2) at a spray height of 18 inches ([…]) above the average plant canopy height. Control plants were sprayed in the same manner with the solvent blank.
(§3) Treatments consisted of the methyl ester of 4-amino-3-chloro-6-(4-chloro-2-fluoro-3-methoxyphenyl)pyridine-2-carboxylic acid (Cmpd 1) as technical grade material and picloram (Tordon® 22K) alone and in combination. The form of compound of formula (I) and picloram-potassium salt were applied on an acid equivalent basis.
(§4) The treated plants and control plants were placed in a greenhouse as described above and watered by subirrigation to prevent wash-off of the test compounds. After 14 d, the condition of the test plants as compared with that of the untreated plants was determined visually and scored on a scale of 0 to 100 percent where 0 corresponds to no injury and 100 corresponds to complete kill.
(§5) The values reported are % control visually rated. Colby's equation was used to determine the herbicidal effects expected from the mixtures (Colby, S.R. Calculation of the synergistic and antagonistic response of herbicide combinations. Weeds 1967, 15, 20-22.).
(§6) More specifically, the following equation was used to calculate the expected activity of mixtures containing two active ingredients, A and B: Expected=A+B−(A×B/100) • A=observed efficacy of active ingredient A at the same concentration as used in the mixture; • B=observed efficacy of active ingredient B at the same concentration as used in the mixture.

[2] = tested on: ABUTH Abutilon theophrasti Medik. (velvetleaf)
Method: as §1, §2, §3, §4, §5, §6

[3] = tested on: EPHHL Euphorbia heterophylla L. (wild poinsettia)
Method: as §1, §2, §3, §4, §5, §6

[4] = tested on: CYPES Cyperus esculentus L. (yellow nutsedge)
Method: as §1, §2, §3, §4, §5, §6

[5] = tested on: SETFA Setaria faberi Herrm. (giant foxtail)
Method: as §1, §2, §3, §4, §5, §6

[6] = tested on: GLXMA Glycine max (volunteer soybean)
Method: as §1, §2, §3, §4, §5, §6

[7] = tested on: VIOTR Viola tricolor L. (wild violet)
Method: as §1, §2, §3, §4, §5, §6

[8] = tested on: BRSNW Brassica napus (winter oilseed rape)
Method: as §1, §2, §3, §4, §5, §6

[9] = tested on: CIRAR Cirsium arvense (L.) Scop. (Canada thistle)
Method: as §1, §2, §3, §4, §5, §6

[10] = tested on: STEME Stellaria media (L.) Vill. (common chickweed)
Method: as §1, §2, §3, §4, §5, §6

**Q.** Which results are given for Nc1c(Cl)c(Cl)nc(C(=O)O)c1Cl [Picloram, 4-amino-3,5,6-trichloro-2-pyridinecarboxylic acid]?
**A.** Visual Growth reduction (%) 14 Days After Application AMARE obs ([1]; Picloram 12 g ae/ha alone): 63%; Visual Growth reduction (%) 14 Days After Application AMARE obs ([1]; Picloram 24 g ae/ha alone): 63%; Visual Growth reduction (%) 14 Days After Application ABUTH obs ([2]; Picloram 12 g ae/ha alone): 25%; Visual Growth reduction (%) 14 Days After Application ABUTH obs ([2]; Picloram 24 g ae/ha alone): 15%; Visual Growth reduction (%) 14 Days After Application EPHHL obs ([3]; Picloram 12 g ae/ha alone): 62%; Visual Growth reduction (%) 14 Days After Application EPHHL obs ([3]; Picloram 24 g ae/ha alone): 65%; Visual Growth reduction (%) 14 Days After Application CYPES obs ([4]; Picloram 12 g ae/ha alone): 0%; Visual Growth reduction (%) 14 Days After Application CYPES obs ([4]; Picloram 24 g ae/ha alone): 0%; Visual Growth reduction (%) 14 Days After Application SETFA obs ([5]; Picloram 12 g ae/ha alone): 0%; Visual Growth reduction (%) 14 Days After Application SETFA obs ([5]; Picloram 24 g ae/ha alone): 0%; Visual Growth reduction (%) 14 Days After Application GLXMA obs ([6]; Picloram 12 g ae/ha alone): 73%; Visual Growth reduction (%) 14 Days After Application GLXMA obs ([6]; Picloram 24 g ae/ha alone): 82%; Visual Growth reduction (%) 14 Days After Application VIOTR obs ([7]; Picloram 12 g ae/ha alone): 0%; Visual Growth reduction (%) 14 Days After Application VIOTR obs ([7]; Picloram 24 g ae/ha alone): 3%; Visual Growth reduction (%) 14 Days After Application BRSNW obs ([8]; Picloram 12 g ae/ha alone): 13%; Visual Growth reduction (%) 14 Days After Application BRSNW obs ([8]; Picloram 24 g ae/ha alone): 20%; Visual Growth reduction (%) 14 Days After Application CIRAR obs ([9]; Picloram 12 g ae/ha alone): 65%; Visual Growth reduction (%) 14 Days After Application CIRAR obs ([9]; Picloram 24 g ae/ha alone): 82%; Visual Growth reduction (%) 14 Days After Application STEME obs ([10]; Picloram 12 g ae/ha alone): 27%; Visual Growth reduction (%) 14 Days After Application STEME obs ([10]; Picloram 24 g ae/ha alone): 17%

**Q.** How did the “Visual Growth reduction (%) 14 Days After Application AMARE obs” value ([1]; Cmpd I 2.5 g ae/ha alone) turn out when COC(=O)c1nc(-c2ccc(Cl)c(OC)c2F)cc(N)c1Cl [Cmpd I, methyl ester of 4-amino-3-chloro-6-(4-chloro-2-fluoro-3-methoxyphenyl)pyridine-2-carboxylic acid] was run?
**A.** 50%

**Q.** And the “Visual Growth reduction (%) 14 Days After Application AMARE obs” value ([1]; Cmpd I 5 g ae/ha alone)?
**A.** 58%

**Q.** What about the “Visual Growth reduction (%) 14 Days After Application AMARE obs” value ([1]; Cmpd I 10 g ae/ha alone) of the same compound?
**A.** 77%

**Q.** And the “Visual Growth reduction (%) 14 Days After Application ABUTH obs” value ([2]; Cmpd I 2.5 g ae/ha alone)?
**A.** 87%

**Q.** What about the “Visual Growth reduction (%) 14 Days After Application ABUTH obs” value ([2]; Cmpd I 5 g ae/ha alone) of the same compound?
**A.** 85%

**Q.** And the “Visual Growth reduction (%) 14 Days After Application ABUTH obs” value ([2]; Cmpd I 10 g ae/ha alone)?
**A.** 90%

**Q.** What about the “Visual Growth reduction (%) 14 Days After Application EPHHL obs” value ([3]; Cmpd I 2.5 g ae/ha alone) of the same compound?
**A.** 85%

**Q.** And the “Visual Growth reduction (%) 14 Days After Application EPHHL obs” value ([3]; Cmpd I 5 g ae/ha alone)?
**A.** 93%

**Q.** What about the “Visual Growth reduction (%) 14 Days After Application EPHHL obs” value ([3]; Cmpd I 10 g ae/ha alone) of the same compound?
**A.** 100%

**Q.** What about the “Visual Growth reduction (%) 14 Days After Application CYPES obs” value ([4]; Cmpd I 2.5 g ae/ha alone) of the same compound?
**A.** 20%

**Q.** And the “Visual Growth reduction (%) 14 Days After Application CYPES obs” value ([4]; Cmpd I 5 g ae/ha alone)?
**A.** 72%

**Q.** What about the “Visual Growth reduction (%) 14 Days After Application CYPES obs” value ([4]; Cmpd I 10 g ae/ha alone) of the same compound?
**A.** 96%

**Q.** And the “Visual Growth reduction (%) 14 Days After Application SETFA obs” value ([5]; Cmpd I 2.5 g ae/ha alone)?
**A.** 0%

**Q.** And the “Visual Growth reduction (%) 14 Days After Application SETFA obs” value ([5]; Cmpd I 5 g ae/ha alone)?
**A.** 5%

**Q.** And the “Visual Growth reduction (%) 14 Days After Application SETFA obs” value ([5]; Cmpd I 10 g ae/ha alone)?
**A.** 35%

**Q.** What about the “Visual Growth reduction (%) 14 Days After Application GLXMA obs” value ([6]; Cmpd I 2.5 g ae/ha alone) of the same compound?
**A.** 80%

**Q.** And the “Visual Growth reduction (%) 14 Days After Application GLXMA obs” value ([6]; Cmpd I 5 g ae/ha alone)?
**A.** 87%

**Q.** And the “Visual Growth reduction (%) 14 Days After Application GLXMA obs” value ([6]; Cmpd I 10 g ae/ha alone)?
**A.** 100%

**Q.** What about the “Visual Growth reduction (%) 14 Days After Application VIOTR obs” value ([7]; Cmpd I 2.5 g ae/ha alone) of the same compound?
**A.** 30%

**Q.** What about the “Visual Growth reduction (%) 14 Days After Application VIOTR obs” value ([7]; Cmpd I 5 g ae/ha alone) of the same compound?
**A.** 43%

**Q.** What about the “Visual Growth reduction (%) 14 Days After Application VIOTR obs” value ([7]; Cmpd I 10 g ae/ha alone) of the same compound?
**A.** 62%

**Q.** And the “Visual Growth reduction (%) 14 Days After Application BRSNW obs” value ([8]; Cmpd I 2.5 g ae/ha alone)?
**A.** 0%

**Q.** And the “Visual Growth reduction (%) 14 Days After Application BRSNW obs” value ([8]; Cmpd I 5 g ae/ha alone)?
**A.** 0%

**Q.** And the “Visual Growth reduction (%) 14 Days After Application BRSNW obs” value ([8]; Cmpd I 10 g ae/ha alone)?
**A.** 10%

**Q.** What about the “Visual Growth reduction (%) 14 Days After Application CIRAR obs” value ([9]; Cmpd I 2.5 g ae/ha alone) of the same compound?
**A.** 47%

**Q.** And the “Visual Growth reduction (%) 14 Days After Application CIRAR obs” value ([9]; Cmpd I 5 g ae/ha alone)?
**A.** 53%

**Q.** And the “Visual Growth reduction (%) 14 Days After Application CIRAR obs” value ([9]; Cmpd I 10 g ae/ha alone)?
**A.** 65%

**Q.** And the “Visual Growth reduction (%) 14 Days After Application STEME obs” value ([10]; Cmpd I 2.5 g ae/ha alone)?
**A.** 50%

**Q.** What about the “Visual Growth reduction (%) 14 Days After Application STEME obs” value ([10]; Cmpd I 5 g ae/ha alone) of the same compound?
**A.** 57%

**Q.** And the “Visual Growth reduction (%) 14 Days After Application STEME obs” value ([10]; Cmpd I 10 g ae/ha alone)?
**A.** 72%
